Key:
ERK1/2 = settings: previously shown; cited from earlier work
[1] = test system: TGF-α-induced pulmonary fibrosis; assay: Prevention study: lung mechanics in TGF-α-induced pulmonary fibrosis; assay type: in vivo; settings: CCSP/TGF-α mice, twice daily for 4 weeks from time of Dox, vs vehicle
Text: To examine if ARRY prevented the physiologic effects of TGF-α-induced lung fibrosis, CCSP/TGF-α mice were given ARRY twice daily for 4 weeks while TGF-α was induced. […] More specifically, FIG. 3 illustrates that ARRY prevents TGF-α-mediated alterations in lung mechanics (*=p<0.05 compared to vehicle and ARRY-treated mice). […] Representative samples from four mice per group include low power (4×) and higher power (10×) of pleural fibrosis.
To induce TGF-α expression, adult transgenic mice (8-12 weeks old) were placed on Doxycycline-containing drinking water (0.5 mg/ml) and food (62.5 mg/kg). Dox-containing water was replaced three times per week.
Administration of ARRY142886: ARRY142886 (ARRY) is a potent, highly specific, allosteric inhibitor of MEK1/2. ARRY is a second generation MEK inhibitor that targets the Ras-Raf-MEK-ERK pathway. ARRY was administered to mice twice daily by gavage, with the first dose at the time of TGF-α induction with doxycycline. […]
(§1) Pulmonary Mechanics: Lung mechanics were assessed on anesthetized mice using a computerized Flexi Vent system (SCIREQ, Montreal, Canada). […] The ventilation mode was changed to forced oscillatory signal (0.5-19.6 Hz), and respiratory impedance was measured. […]

[2] = test system: established TGF-α-induced pulmonary fibrosis; assay: Rescue study of established fibrosis: lung histology (trichrome stain); assay type: in vivo; settings: CCSP/TGF-α mice, 8 weeks total Dox, treatment during last 4 weeks
Protocol: To determine whether the ERK/MAPK pathway mediates the progression of established fibrosis, CCSP/TGFα mice were treated with ARRY following 4 weeks of Dox, while remaining on Dox for an additional 4 weeks (8 weeks total Dox, 4 week ARRY). Controls included CCSP/TGFα mice treated with vehicle while remaining on Dox an additional 4 weeks (8 weeks total Dox, 4 week vehicle). CCSP/TGFα mice began losing body weight after 4 weeks of Dox. […] See FIG. 6, illustrating that TGF-α was induced with doxycycline for 8 weeks in transgenic mice. ARRY added after 4 weeks of TGF-α expression attenuated weight loss, compared to vehicle-treated mice. […] See FIG. 8, illustrating that ARRY prevents progression of TGF-α induced fibrosis as assessed by lung histology using a trichrome stain. In FIG. 8, a representative sample from 4 mice per group includes low power (4×) and higher power (10×) of pleural fibrosis. […] Lung Histology and Immunohistochemistry: Mice were killed with pentobarbital sodium (65 mg/ml) euthanasia solution (Fort Dodge Animal Health, Fort Dodge, Iowa), and lungs were inflation fixed using 4% paraformaldehyde at 25 cm H2O of pressure, and then allowed to fix overnight at 4° C. Fixed lungs were then washed with phosphate-buffered saline (PBS), dehydrated through a graded series of ethanols, and processed for paraffin embedding. […]

[3] = Rescue study of established fibrosis: body weight; assay type: in vivo; settings: CCSP/TGFα mice, 8 weeks total Dox, treatment during last 4 weeks, vs vehicle
Protocol: (§2) To determine whether the ERK/MAPK pathway mediates the progression of established fibrosis, CCSP/TGFα mice were treated with ARRY following 4 weeks of Dox, while remaining on Dox for an additional 4 weeks (8 weeks total Dox, 4 week ARRY). Controls included CCSP/TGFα mice treated with vehicle while remaining on Dox an additional 4 weeks (8 weeks total Dox, 4 week vehicle). CCSP/TGFα mice began losing body weight after 4 weeks of Dox. […] See FIG. 6, illustrating that TGF-α was induced with doxycycline for 8 weeks in transgenic mice. ARRY added after 4 weeks of TGF-α expression attenuated weight loss, compared to vehicle-treated mice.
(§3) Administration of ARRY142886: ARRY142886 (ARRY) is a potent, highly specific, allosteric inhibitor of MEK1/2. ARRY is a second generation MEK inhibitor that targets the Ras-Raf-MEK-ERK pathway. ARRY was administered to mice twice daily by gavage, with the first dose at the time of TGF-α induction with doxycycline. Mice were then anesthetized (Isoflurane; Abbott Labs, Chicago, Ill.), and 37.5 mg/kg sterile ARRY142886 was administered by gavage using a 20 gauge feeding catheter (Harvard Apparatus, Holliston, Mass.). Mice were treated with vehicle or ARRY twice daily for up to 4 weeks. Mice were weighed at the beginning of the study and at weekly intervals.

[4] = test system: phosphorylation of ERK1/2; assay: Western blot of lung homogenates for ERK1/2 phosphorylation in CCSP/TGF-α mice; assay type: in vivo; settings: twice daily by gavage, 4 days of TGF-α induction, vs vehicle
Protocol: Western Blots: Western blot analysis was performed on lung homogenates of CCSP/TGF-α mice treated with 4 days of Dox. Controls were littermate single transgene CCSP/− mice treated with 1 day of Dox. Protein concentrations were assessed using a Bradford Assay and protein loaded on a 4%-20% Tris/glycine SDSPAGE (Invitrogen) and electroblotted to PVDF membranes (0.45 um: Bio-Rad). Blots were blocked with 5% nonfat dry milk in TBST (10 mM Tris, pH 8, 150 mM NaCl, 0.1% Tween 20) and incubated with antibodies against total and phosphorylated Erk (Cell Signaling Technology) and proliferating cell nuclear antigen (PCNA) (Cell Signaling Technology). Blots were washed in TBST and incubated with goat anti-rabbit horse radish peroxidase conjugated (Calbiochem, EMD Biosciences) secondary antibodies and developed on film by chemiluminescence using the ECL Plus system (Amersham Biosciences). Densitometry was performed using the volume integration function on a Phosphorlmager software Imagequant 5.2 (Molecular Dynamics, Sunnyvale, Calif.) after scanning the films.

[5] = test system: TGF-α-induced pulmonary fibrosis; assay: Prevention study: lung proliferation and matrix gene expression (Collagens I, III and Elastin); assay type: in vivo; settings: TGF-α transgenic mice, 4 weeks twice daily, vs vehicle
Protocol: A 4-week study was performed to evaluate the physiologic effects of MEK1/2 kinase inhibition with ARRY on TGF-α-induced pulmonary fibrosis. ARRY was administered to TGF-α transgenic mice; a model for studying pulmonary fibrosis. Endpoints included changes in lung mechanics, lung histology, lung cell proliferation and changes in matrix gene expression (Collagens I, III and Elastin). Differences in the parameters were compared between mice treated with and without ARRY. Mice which over express TGF-α that were treated with 4 weeks of vehicle (i.e. an innocuous or inert medication) developed severe lung fibrosis on histology and lung collagen measurements associated with severe lung restriction on lung mechanics. […] Together, these findings support that MEK1/2 inhibition prevents TGF-α/EGF-mediated pulmonary fibrosis, and is a possible pharmacological strategy to treat pulmonary fibrosis.

[6] = test system: TGF-α-induced pulmonary fibrosis; assay: Prevention study: lung histology (trichrome stain); assay type: in vivo, mice
Text: To examine if ARRY prevented the physiologic effects of TGF-α-induced lung fibrosis, CCSP/TGF-α mice were given ARRY twice daily for 4 weeks while TGF-α was induced. […] More specifically, FIG. 3 illustrates that ARRY prevents TGF-α-mediated alterations in lung mechanics (*=p<0.05 compared to vehicle and ARRY-treated mice). […] Representative samples from four mice per group include low power (4×) and higher power (10×) of pleural fibrosis. […] To induce TGF-α expression, adult transgenic mice (8-12 weeks old) were placed on Doxycycline-containing drinking water (0.5 mg/ml) and food (62.5 mg/kg). Dox-containing water was replaced three times per week. Administration of […]) is a potent, highly specific, allosteric inhibitor of MEK1/2. ARRY is a second generation MEK inhibitor that targets the Ras-Raf-MEK-ERK pathway. ARRY was administered to mice twice daily by gavage, with the first dose at the time of TGF-α induction with doxycycline. Mice were then anesthetized (Isoflurane; Abbott Labs, Chicago, Ill.), and 37.5 mg/kg sterile ARRY142886 was administered by gavage using a 20 gauge feeding catheter (Harvard Apparatus, Holliston, Mass.). Mice were treated with vehicle or ARRY twice daily for up to 4 weeks. Mice were weighed at the beginning of the study and at weekly intervals. […]

[7] = test system: established TGF-α-induced pulmonary fibrosis; assay: Rescue study of established fibrosis: lung mechanics; assay type: in vivo; settings: CCSP/TGF-α mice, 8 weeks total Dox, treatment during last 4 weeks, vs vehicle
Protocol: as §2
See FIG. 7, illustrating that TGF-α was induced with doxycycline for 8 weeks in CCSP/TGF-α transgenic mice. ARRY added after 4 weeks of TGF-α expression prevented progression of alterations in lung mechanics compared to vehicle-treated mice. *=p<0.05 compared to vehicle control CSP/− mice. *#=p<0.05 compared to CCSP/TGF-α mice.
as §1

[8] = test system: TGF-α-induced pulmonary fibrosis; assay: Prevention study: total lung collagen (Sircol Collagen Assay); assay type: in vivo; settings: CCSP/TGF-α mice, twice daily for 4 weeks from time of Dox
Text: To examine if ARRY prevented the physiologic effects of TGF-α-induced lung fibrosis, CCSP/TGF-α mice were given ARRY twice daily for 4 weeks while TGF-α was induced. […] More specifically, FIG. 3 illustrates that ARRY prevents TGF-α-mediated alterations in lung mechanics (*=p<0.05 compared to vehicle and ARRY-treated mice). […] Representative samples from four mice per group include low power (4×) and higher power (10×) of pleural fibrosis. […] To induce TGF-α expression, adult transgenic mice (8-12 weeks old) were placed on Doxycycline-containing drinking water (0.5 mg/ml) and food (62.5 mg/kg). Dox-containing water was replaced three times per week. Administration of […]) is a potent, highly specific, allosteric inhibitor of MEK1/2. ARRY is a second generation MEK inhibitor that targets the Ras-Raf-MEK-ERK pathway. ARRY was administered to mice twice daily by gavage, with the first dose at the time of TGF-α induction with doxycycline. Mice were then anesthetized (Isoflurane; Abbott Labs, Chicago, Ill.), and 37.5 mg/kg sterile ARRY142886 was administered by gavage using a 20 gauge feeding catheter (Harvard Apparatus, Holliston, Mass.). […] Total Lung Collagen: Total lung collagen was determined by measuring total soluble collagen (Sircol Collagen Assay, Biocolor, Ireland). […] The optical density measured with a spectrophotometer (540 nm).

[9] = test system: TGF-α-induced cellular proliferation; assay: Epithelial and mesenchymal proliferation in lung sections of CCSP/TGF-α mice; assay type: in vivo; settings: twice daily by gavage, 4 days of TGF-α induction
Protocol: ARRY was administered to CCSP/TGF-α mice (i.e., mice expressing TGF-α in the epithelium, under control of the doxycycline (Dox)-regulatable Clara cell secretory protein promoter) twice daily by gavage, with the first dose at the time of TGF-α induction with doxycycline. Mice were sacrificed after 4 days of TGF-α induction and ARRY administration.
as §3
Lung Histology and Immunohistochemistry: Mice were killed with pentobarbital sodium (65 mg/ml) euthanasia solution (Fort Dodge Animal Health, Fort Dodge, Iowa), and lungs were inflation fixed using 4% paraformaldehyde at 25 cm H2O of pressure, and then allowed to fix overnight at 4° C. […]

[10] = test system: TGF-α-induced pulmonary fibrosis; settings: previous study; cited from earlier work

Q: For C=CCN(/C=C1/C(=O)O[C@H](COC)[C@@]2(C)C1=C(O)C(=O)C1=C2[C@H](OC(C)=O)C[C@]2(C)C(=O)CC[C@@H]12)CC=C [PX-866], which “phosphorylation of ERK1/2 in treated TGF-α mice” value (ERK1/2) is on record?
A: Its value is “remain phosphorylated”.

Q: For Cn1cnc2c(F)c(Nc3ccc(Br)cc3Cl)c(C(=O)NOCCO)cc21 [ARRY142886], which “lung mechanics (airway resistance, airway and tissue elastance, compliance)” value [1] is on record?
A: Its value is “no changes in lung mechanics”.

Q: What about the “lung mechanics (airway resistance, airway and tissue elastance, compliance)” value ([1]; listed as ARRY) of the same compound?
A: Its value is “prevented TGFα-mediated increases in airway resistance, and airway and tissue elastance and decreases in compliance”.

Q: What about the “pulmonary fibrosis measured by lung matrix expression on lung histology” value [2] of the same compound?
A: The value was “reduced pulmonary fibrosis”.

Q: And the body weight loss [3]?
A: Its body weight loss is “Body weight loss was attenuated”.

Q: What about the “phosphorylation of ERK1/2 in lung homogenates” value [4] of the same compound?
A: The value was “inhibited increased phosphorylation of ERK1/2”.

Q: And the “lung proliferation and matrix gene expression” value [5]?
A: The value was “significantly reduced lung proliferation and matrix gene expression”.

Q: And the “lung fibrosis on lung histology” value ([6]; CCSP/TGF-α mice, twice daily for 4 weeks from time of Dox, trichrome stain)?
A: The value was “prevents TGF-α-induced pulmonary fibrosis as demonstrated by lung histology”.

Q: And the “lung fibrosis overall (4-week prevention study)” value ([6]; TGF-α transgenic mice, 4 weeks twice daily, vs vehicle)?
A: Its value is “complete prevention of lung fibrosis”.

Q: What about the “lung mechanics (compliance, airway resistance, elastance)” value [7] of the same compound?
A: The value was “improved lung mechanics”.

Q: What about the total lung collagen [8] of the same compound?
A: Its total lung collagen is “prevents TGF-α-induced fibrosis as assessed by total lung collagen”.

Q: What about the “TGF-α-induced cellular proliferation (epithelial and mesenchymal) in lung sections” value [9] of the same compound?
A: Its value is “dose-dependent inhibition of TGF-α-induced cellular proliferation”.

Q: With C#Cc1cccc(Nc2ncnc3cc(OCCOC)c(OCCOC)cc23)c1 [erlotinib] as the compound, how does the “fibrosis in the CCSP/TGF-α transgenic model” value [10] read?
A: Its value is “prevented fibrosis”.

Q: For COc1cc2ncnc(Nc3ccc(F)c(Cl)c3)c2cc1OCCCN1CCOCC1 [gefitinib], which “fibrosis in the CCSP/TGF-α transgenic model” value [10] is on record?
A: Its value is “prevented fibrosis”.
